Test results: patent US20210363254A1, “PHARMACEUTICAL COMBINATIONS” (Novartis AG, priority 2018, published 2021)
Read-outs that look alike come from different tables or passages of the source.

Columns and labels:
[1] = assay type: in vivo, human
Protocol: Pharmacokinetic data have been evaluated throughout the course of the dose escalation. Two HDM201 drug variants have been evaluated during the course of the study (refer to the protocol for further details). […] Furthermore, an integrated analysis of all available HDM201 concentrations was conducted using a population approach. The PK of HDM201 was best described by a 1-compartment PK model with a delayed zero- and first-order absorption process, and a linear clearance. Body weight was identified as a statistically significant covariate on apparent central volume of distribution (Vc/F), in which Vc/F increased with increasing body weight.
To further support the preferred dose for HDM201, compartmental PK modeling was used to estimate the individual average concentration per cycle for the 9 patients treated at 120 mg on regimen 1B (FIG. 15). For the majority of patients (7 out of 9), the estimated average drug concentrations per cycle were near or above the most conservative average tumor stasis concentration of ˜41 ng/mL per cycle determined from PKPD modeling of preclinical data (human SJSA-1 xenograft rat model).
Compartmental population PK modeling of NVP-HDM201 was used to estimate the individual average plasma concentration for Cycle 1 and to allow comparison with preclinical average concentration for tumor stasis derived by PK/PD tumor growth modeling. […] The dashed line at concentration of ≈19 ng/mL represents average tumor stasis determined from PK/PD modeling of preclinical data from a liposarcoma (HSAX2655) patient-derived xenograft rat model.

[2] = assay type: in vivo
Text: The endpoint for the primary objective is the incidence of Dose Limiting Toxicities (DLTs) during the first cycle of treatment. Although the primary analysis estimates the MTD based on DLT rate, the final preferred dose determination utilizes additional data beyond cycle 1 DLT rate, including later cycle tolerability, PK, PD and anti-tumor activity.
Therefore, dose limiting hematologic toxicities occurring in cycle 2 were also factored into dose escalation decisions during the course of the study, using a non-binding sensitivity model. Table Ex2.4 summarizes the number of dose limiting toxicities during cycle 1 and dose limiting hematologic toxicities in cycle 2 across all the regimens evaluated in solid tumors.
This study utilizes a Bayesian logistic regression model (BLRM) to support dose escalation and estimate the MTD and/or determine the preferred dose for HDM201. The BLRM with escalation with overdose control (EWOC) enables incorporation of available prior information and updates the model parameters based upon new information about observed dose limiting toxicities (DLT) seen in the clinical study. During the course of the dose escalation for regimen 1A and 1B, DLT incidence has been used to update the model and support the decision for the next dose. When during the course of the study it became apparent that HDM201 induced bone marrow toxicity occurred predominantly during cycle 2, a non-binding sensitivity model including cycle 1 DLT and hematologic dose limiting AEs in cycle 2 (weighting all cytopenias equally) was used to guide dose escalation/RDE determinations. Additionally, decisions were at all times based on a synthesis of relevant data available from all dose levels evaluated in the study including low grade toxicities, PK, and PD data (when available) from evaluable patients.

[3] = 1A (d 1 Q3 weeks) 12.5 mg (n = 1)
[4] = 1B (d 1, d 8 of 4 w cycle) 120 mg (n = 9)
[5] = 2A (2 weeks on/2 weeks off) 1 mg (n = 1)
[6] = 2C (1 week on/3 weeks off) 15 mg (n = 8)

COc1ncc(-c2nc3c(n2C(C)C)[C@H](c2ccc(Cl)cc2)N(c2cc(Cl)cn(C)c2=O)C3=O)c(OC)n1 [HDM201, (S)-5-(5-Chloro-1-methyl-2-oxo-1,2-dihydro-pyridin-3-yl)-6-(4-chloro-phenyl)-2-(2,4-dimethoxy-pyrimidin-5-yl)-1-isopropyl-5,6-dihydro-1H-pyrrolo[3,4-d]imidazol-4-one]
7 out of 9: patients with estimated average drug concentration per cycle near or above ~41 ng/mL ([1]; regimen 1B 120 mg, compartmental PK modeling)
One: events of prolonged neutropenia meeting DLT criteria ([2]; regimen 1B 150 mg, onset on day 22, lasting 18 days)
up to 400 mg: dose up to which BLRM (cycle 1 DLT events) supported escalation ([2]; regimen 1B)
25.7%: Median DLT rate, sensitivity analysis ([2]; BLRM, regimen 1B 120 mg)
0: DLTs (cycle 1) ([2]; 1A 25 mg (n = 1)) | Hematologic dose limiting toxicities (cycle 2) ([2]; 1A 25 mg (n = 1)) | DLTs (cycle 1) ([2]; 1A 50 mg (n = 4)) | DLTs (cycle 1) ([2]; 1A 100 mg (n = 4)) | Hematologic dose limiting toxicities (cycle 2) ([2]; 1A 100 mg (n = 4)) | DLTs (cycle 1) ([2]; 1A 200 mg (n = 5)) | DLTs (cycle 1) ([2]; 1A 250 mg (n = 6)) | DLTs (cycle 1) [2, 3] | Hematologic dose limiting toxicities (cycle 2) [2, 3] | DLTs (cycle 1) ([2]; 1B 200 mg (n = 3)) | DLTs (cycle 1) [2, 4] | DLTs (cycle 1) ([2]; 2A 2 mg (n = 2)) | Hematologic dose limiting toxicities (cycle 2) ([2]; 2A 2 mg (n = 2)) | DLTs (cycle 1) ([2]; 2A 4 mg (n = 4)) | Hematologic dose limiting toxicities (cycle 2) ([2]; 2A 4 mg (n = 4)) | DLTs (cycle 1) ([2]; 2A 7.5 mg (n = 4)) | Hematologic dose limiting toxicities (cycle 2) ([2]; 2A 7.5 mg (n = 4)) | DLTs (cycle 1) ([2]; 2A 15 mg (n = 4)) | DLTs (cycle 1) ([2]; 2A 20 mg (n = 5)) | DLTs (cycle 1) [2, 5] | Hematologic dose limiting toxicities (cycle 2) [2, 5] | DLTs (cycle 1) ([2]; 2C 20 mg (n = 6)) | Hematologic dose limiting toxicities (cycle 2) ([2]; 2C 20 mg (n = 6)) | Hematologic dose limiting toxicities (cycle 2) ([2]; 2C 25 mg (n = 5)) | DLTs (cycle 1) [2, 6] | DLTs (cycle 1), Total ([2]; regimen 2A, N = 20)
1: Hematologic dose limiting toxicities (cycle 2) ([2]; 1A 50 mg (n = 4)) | Hematologic dose limiting toxicities (cycle 2) ([2]; 1A 200 mg (n = 5)) | Hematologic dose limiting toxicities (cycle 2) ([2]; 1A 250 mg (n = 6)) | DLTs (cycle 1) ([2]; 1B 150 mg (n = 8)) | Hematologic dose limiting toxicities (cycle 2) ([2]; 1B 150 mg (n = 8)) | Hematologic dose limiting toxicities (cycle 2) ([2]; 2A 15 mg (n = 4)) | Hematologic dose limiting toxicities (cycle 2) [2, 6] | DLTs (cycle 1), Total ([2]; regimen 1B, N = 20) | Hematologic dose limiting toxicities (cycle 2), Total ([2]; regimen 2C, N = 19)
120 mg: RDE for patients with solid tumors ([2]; D1 and D8 of each 28 day cycle)
neutropenia and thrombocytopenia: Dose-limiting toxicities (type) ([2]; typically occurring during Cycle 2)
5: Hematologic dose limiting toxicities (cycle 2), Total ([2]; regimen 1A, N = 26) | Hematologic dose limiting toxicities (cycle 2), Total ([2]; regimen 2A, N = 20)
2: DLTs (cycle 1) ([2]; 1A 350 mg (n = 5)) | Hematologic dose limiting toxicities (cycle 2) ([2]; 1A 350 mg (n = 5)) | Hematologic dose limiting toxicities (cycle 2) [2, 4] | DLTs (cycle 1) ([2]; 2C 25 mg (n = 5)) | DLTs (cycle 1), Total ([2]; regimen 1A, N = 26) | DLTs (cycle 1), Total ([2]; regimen 2C, N = 19)
3: Hematologic dose limiting toxicities (cycle 2), Total ([2]; regimen 1B, N = 20)
≤ 8 days: steady-state reached ([1]; daily dosing)
limited accumulation: accumulation upon daily dosing ([1]; human, in vivo)
2 to 5.8 h: median time to reach maximum plasma concentrations (Tmax) ([1]; dose range 2 to 350 mg)
3.5%: Median DLT rate, per protocol analysis ([2]; BLRM, regimen 1B 120 mg)
4: Hematologic dose limiting toxicities (cycle 2) ([2]; 2A 20 mg (n = 5))
